Measurements as given in ChEMBL document CHEMBL3638614, “Diaza-spiro[5.5]undecanes” (2013).

Assays:
Orexin receptor type 2 [1] = target: T1, Orexin receptor type 2 (Homo sapiens, UniProt O43614); assay: (§1) FLIPR Assay : FLIPR assay using orexin receptor.
T1 sequence (O43614 whole entry): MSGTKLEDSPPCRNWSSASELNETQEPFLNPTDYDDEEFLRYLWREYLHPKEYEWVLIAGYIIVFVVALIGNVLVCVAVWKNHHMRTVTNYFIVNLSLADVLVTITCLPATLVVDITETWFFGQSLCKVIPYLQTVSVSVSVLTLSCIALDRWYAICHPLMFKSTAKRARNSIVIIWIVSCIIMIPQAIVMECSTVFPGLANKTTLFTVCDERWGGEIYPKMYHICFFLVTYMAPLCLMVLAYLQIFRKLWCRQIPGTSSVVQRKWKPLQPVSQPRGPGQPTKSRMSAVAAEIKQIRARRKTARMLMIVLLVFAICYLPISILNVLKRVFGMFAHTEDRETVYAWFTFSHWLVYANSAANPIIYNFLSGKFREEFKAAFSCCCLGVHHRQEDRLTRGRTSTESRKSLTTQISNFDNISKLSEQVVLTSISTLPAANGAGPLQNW

[2] = target: T2, Orexin/Hypocretin receptor type 1 (Homo sapiens, UniProt O43613); assay: as §1
T2 sequence (O43613 whole entry): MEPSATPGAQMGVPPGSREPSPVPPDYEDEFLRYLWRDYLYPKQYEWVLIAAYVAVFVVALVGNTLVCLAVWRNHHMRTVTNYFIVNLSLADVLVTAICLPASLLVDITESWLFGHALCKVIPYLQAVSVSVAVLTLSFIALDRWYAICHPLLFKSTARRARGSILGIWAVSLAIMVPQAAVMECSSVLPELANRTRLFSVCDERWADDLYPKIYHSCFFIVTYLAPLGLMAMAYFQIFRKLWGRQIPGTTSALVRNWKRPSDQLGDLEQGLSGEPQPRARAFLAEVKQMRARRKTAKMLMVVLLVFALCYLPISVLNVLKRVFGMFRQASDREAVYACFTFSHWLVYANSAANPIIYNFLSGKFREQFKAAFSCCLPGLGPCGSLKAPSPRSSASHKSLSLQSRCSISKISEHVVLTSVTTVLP

Orexin receptor type 2 [3] = target: T1, Orexin receptor type 2; assay: (§2) Radioligand Binding Assay : Radioligand binding assay using orexin receptor.
[4] = target: T2, Orexin/Hypocretin receptor type 1; assay: as §2

Row | Ki (Orexin receptor type 2 [1]) | Ki [2] | Kd (Orexin receptor type 2 [3]) | Kd [4] | Compound
1 | 126 nM | 2460 nM | 755 nM | > 10000 nM | O=C1N(Cc2cccc3ccccc23)CCCC12CCN(c1nc3ccccc3[nH]1)CC2
2 | – | – | > 10000 nM | > 10000 nM | Cn1c(N2CCC3(CCCN(Cc4ccccc4)C3=O)CC2)nc2ccccc21
3 | 739 nM | 1540 nM | – | – | O=C1N(Cc2cc(Cl)cc3c2OCOC3)CCCC12CCN(c1cnc3ccccc3n1)CC2
